Test results: ChEMBL document CHEMBL4483862, “Open-source discovery of chemical leads for next-generation chemoprotective antimalarials” (2018)

Tested on: Plasmodium berghei
Experiment: Luciferase/luciferin-expressing antifolate-resistant parasites were used to infect a culture of HepG2 cells that were pre-incubated with compounds. Infected hepatocytes emit light due to the luciferase reaction. Assay results are presented as the percent inhibition of light emission compared to control. […]
Assay type: functional
Details: sporozoite; for IC90: read-out: LUCIFERASE INFECTION ASSAY - IC90
[1] = read-out: LUCIFERASE INFECTION ASSAY - IC50

SMILES | IC90 [µM] | IC50 [1] [µM] | further results
Clc1ccc(C2=NN=C/C2=N\Nc2ccccc2)cc1 | > 11.7 | – | IC50 (FFLUC_HILL_SLOPE 24, FFLUC_R_SQUARED 0.142, HEPG2TOX_HILL_SLOPE 12.3, HEPG2TOX_R_SQUARED 0.867, PBLUC_HILL_SLOPE 2.49, PBLUC_R_SQUARED 0.792, read-out: LUCIFERASE INFECTION ASSAY - IC50): 5.52 µM
Cc1ccc(-n2c(SCC(=O)NC34CC5CC(CC(C5)C3)C4)nnc2-c2ccccc2)cc1C | > 10 | – | IC50 (FFLUC_HILL_SLOPE 8.79, FFLUC_R_SQUARED 0.279, read-out: LUCIFERASE INFECTION ASSAY - IC50): > 10 µM
CN(C)c1ccccc1-c1cnc2sc(NCCc3ccncc3)nn12 | > 9.05 | – | IC50 (HEPG2TOX_HILL_SLOPE 0.921, HEPG2TOX_R_SQUARED 0.497, read-out: LUCIFERASE INFECTION ASSAY - IC50): > 9.05 µM
CC(CCc1ccccc1)Nc1ccc(S(N)(=O)=O)cc1[N+](=O)[O-] (stereo not given) | > 10 | – | IC50 (HEPG2TOX_HILL_SLOPE 0.279, HEPG2TOX_R_SQUARED 0.54, PBLUC_HILL_SLOPE 1.88, PBLUC_R_SQUARED 0.412, read-out: LUCIFERASE INFECTION ASSAY - IC50): 8.69 µM
COc1ccc(Nc2nccc3[nH]c(-c4ccsc4)cc23)cn1 | > 10 | > 10 | –
FC(F)(F)Oc1ccc(Nc2n[nH]c(=S)s2)cc1 | 5 | – | IC50 (FFLUC_HILL_SLOPE 16.2, FFLUC_R_SQUARED 0.24, PBLUC_HILL_SLOPE 2.38, PBLUC_R_SQUARED 0.611, read-out: LUCIFERASE INFECTION ASSAY - IC50): 1.99 µM
CC(Oc1ccc2ccc(=O)oc2c1)C(=O)N1CCc2ccccc21 (stereo not given) | 6.27 | – | IC50 (PBLUC_HILL_SLOPE 3.92, PBLUC_R_SQUARED 0.713, read-out: LUCIFERASE INFECTION ASSAY - IC50): 3.58 µM
CC(C)(C)c1ccc(-c2nnc(SCc3ccccc3)n2-c2cccc(C(F)(F)F)c2)cc1 | > 7.06 | – | IC50 (PBLUC_HILL_SLOPE 9.35, PBLUC_R_SQUARED 0.201, read-out: LUCIFERASE INFECTION ASSAY - IC50): 6.61 µM
COc1cc(Nc2cc3c(cn2)cc(-c2cnn(C)c2)n3Cc2ccccc2)cc(OC)c1OC | 3.72 | 3.03 | –
OCc1ccc(-c2cn3c(-c4ccc5c(c4)OCO5)cnc3cn2)cc1 | > 9.56 | – | IC50 (PBLUC_HILL_SLOPE 1.17, PBLUC_R_SQUARED 0.649, read-out: LUCIFERASE INFECTION ASSAY - IC50): 3.91 µM
CC(C)NC(=O)c1c(NC(=O)c2cc(F)ccc2F)nc2ccccn12 | > 9.21 | – | IC50 (PBLUC_HILL_SLOPE 2.78, PBLUC_R_SQUARED 0.497, read-out: LUCIFERASE INFECTION ASSAY - IC50): 6.02 µM
N=C(NOC(=O)c1cnn(-c2ccccc2)c1C(F)(F)F)c1ccc(Cl)cc1 | > 8.07 | 1.06 | –
CN(C)S(=O)(=O)c1ccc(Cn2cc(C(=O)NCc3cccc(C(F)(F)F)c3)sc2=O)cc1 | > 6.61 | – | IC50 (PBLUC_HILL_SLOPE 16, PBLUC_R_SQUARED 0.195, read-out: LUCIFERASE INFECTION ASSAY - IC50): 6.47 µM
NC(=O)NC(=O)C(Nc1ccc(Oc2ccccc2)cc1)c1ccccc1 (stereo not given) | > 10 | > 10 | –
CSc1sc(C(=O)N2CCOCC2)c2c1S(=O)(=O)N(C)c1ccccc1-2 | > 8.04 | > 8.04 | –
CC(=O)c1cnc2sc(C(=O)OC3CCCCC3)c(C)c2c1 | 3.88 | – | IC50 (PBLUC_HILL_SLOPE 13.1, PBLUC_R_SQUARED 0.209, read-out: LUCIFERASE INFECTION ASSAY - IC50): 3.28 µM
O=C(Nc1cccc(Cl)c1)Nc1ccccc1N1CCCC1 | > 10.4 | – | IC50 (HEPG2TOX_HILL_SLOPE 6.22, HEPG2TOX_R_SQUARED 0.342, PBLUC_HILL_SLOPE 2.56, PBLUC_R_SQUARED 0.455, read-out: LUCIFERASE INFECTION ASSAY - IC50): 6.9 µM
Cc1cc(C)cc(C(=O)NCC(=O)N(C)Cc2cn(-c3ccccc3)nc2-c2ccccc2)c1 | > 10 | – | IC50 (PBLUC_HILL_SLOPE 2.80, 14.9, PBLUC_R_SQUARED 0.685, 0.405, read-out: LUCIFERASE INFECTION ASSAY - IC50): 7.57 µM
Oc1c(Cn2c(=S)sc3ccccc32)cc(Cl)c2cccnc12 | 1.24 | – | IC50 (FFLUC_HILL_SLOPE 19.2, FFLUC_R_SQUARED 0.535, HEPG2TOX_HILL_SLOPE 1.74, 1.21, HEPG2TOX_R_SQUARED 0.199, 0.803, PBLUC_HILL_SLOPE 4.66, PBLUC_R_SQUARED 0.802, read-out: LUCIFERASE INFECTION ASSAY - IC50): 0.772 µM
O=C(Cn1c(=O)ccn(Cc2ccccc2)c1=O)N1CCC(n2c(=O)[nH]c3ccccc32)CC1 | > 10 | > 10 | –
Cc1ccc(Oc2ccc(NC(=O)CCc3cccnc3)cc2)cc1 | 9.55 | – | IC50 (PBLUC_HILL_SLOPE 16.6, PBLUC_R_SQUARED 0.382, read-out: LUCIFERASE INFECTION ASSAY - IC50): 8.37 µM
COc1ccc(Nc2nccc3[nH]c(-c4ccsc4)cc23)cc1OC | 7.38 | – | IC50 (HEPG2TOX_HILL_SLOPE 8.96, HEPG2TOX_R_SQUARED 0.789, PBLUC_HILL_SLOPE 2.87, PBLUC_R_SQUARED 0.796, read-out: LUCIFERASE INFECTION ASSAY - IC50): 3.43 µM
CCOc1ccccc1/C=C/C(=O)OCC(=O)Nc1ccccc1-c1ccccc1 | 3.67 | – | IC50 (HEPG2TOX_HILL_SLOPE 2.07, HEPG2TOX_R_SQUARED 0.949, PBLUC_HILL_SLOPE 25.6, PBLUC_R_SQUARED 0.535, read-out: LUCIFERASE INFECTION ASSAY - IC50): 3.37 µM

SMILES | IC90 [µM] | IC50 [1] [µM] | further results
FC(F)(F)c1cccc(-c2nc3ccnc(Nc4ccccc4)c3[nH]2)c1 | > 10 | 3.2 | –
N#Cc1ccc(NC(=O)c2cnn(Cc3ccccc3Cl)c2)cc1 | > 10 | > 10 | –
CS(=O)(=O)c1ccc(C(F)(F)F)cc1[N+](=O)[O-] | > 12.3 | > 12.3 | –
CCNC(=O)c1cccc(Nc2ccc(C(=O)c3ccccc3)cc2)c1 | 8.6 | – | IC50 (PBLUC_HILL_SLOPE 4.36, PBLUC_R_SQUARED 0.612, read-out: LUCIFERASE INFECTION ASSAY - IC50): 5.2 µM
COCCn1c(SC(C)C(=O)NCC2CCCO2)nc2scc(-c3ccc(F)cc3)c2c1=O (stereo not given) | > 10 | > 10 | –
O=C(Cc1csc(N2CCCC2=O)n1)Nc1nc(-c2ccc3c(c2)CCCC3)cs1 | > 10 | > 10 | –
COc1ccc(-c2cnc3sc(NCCc4ccccn4)nn23)cn1 | > 9.36 | > 9.36 | –
OCc1ccc(-c2cn3c(-c4cccc(Cl)c4)cnc3cn2)cc1 | > 9.83 | – | IC50 (PBLUC_HILL_SLOPE 0.56, PBLUC_R_SQUARED 0.237, read-out: LUCIFERASE INFECTION ASSAY - IC50): > 9.83 µM
C1=C(c2nc3ccccc3[nH]2)C(c2ccccc2)=NNC1c1ccccc1 (stereo not given) | > 10 | 9.97 | –
CCOC(=O)c1c(-c2ccccc2)csc1NC(=O)C(C)OC(=O)c1ccccc1NS(=O)(=O)c1cccc(C(F)(F)F)c1 (stereo not given) | > 10 | > 10 | –
O=C1CC2(CCCC2)C(=O)N1CC(O)c1ccccc1 (stereo not given) | > 10 | > 10 | –
O=[N+]([O-])c1ccc(Oc2cncc(Cl)c2)c(-c2nnc(-c3ccc(C(F)(F)F)cc3)o2)c1 | > 7.13 | – | IC50 (HEPG2TOX_HILL_SLOPE 2.45, HEPG2TOX_R_SQUARED 0.932, PBLUC_HILL_SLOPE 14.3, PBLUC_R_SQUARED 0.511, read-out: LUCIFERASE INFECTION ASSAY - IC50): 6.55 µM
CCCc1cc(=O)n2ncc(-c3ccccc3)c2[nH]1 | 12.2 | – | IC50 (HEPG2TOX_HILL_SLOPE 0.383, HEPG2TOX_R_SQUARED 0.727, PBLUC_HILL_SLOPE 12.3, PBLUC_R_SQUARED 0.782, read-out: LUCIFERASE INFECTION ASSAY - IC50): 10.2 µM
COC(=O)c1ccccc1SCC(C)=O | > 14.7 | – | IC50 (FFLUC_HILL_SLOPE 5.95, FFLUC_R_SQUARED 0.0707, PBLUC_HILL_SLOPE 4.71, PBLUC_R_SQUARED 0.0859, read-out: LUCIFERASE INFECTION ASSAY - IC50): 14 µM
COc1ccccc1-c1nnc(SCc2cc(=O)c(O)co2)n1C | > 10 | > 10 | –
O=C1CCN(Cc2ccc(Cl)cc2)N1 | > 15.7 | – | IC50 (PBLUC_HILL_SLOPE 1.7, PBLUC_R_SQUARED 0.276, read-out: LUCIFERASE INFECTION ASSAY - IC50): 14.1 µM
COc1ccc(OC)c(NC(=O)c2cc(-c3ccccc3)nn2-c2ccccc2)c1 | > 10 | > 10 | –
Oc1cccc(-c2cnc3cnc(-c4ccc(CNc5ccccc5)cc4)cn23)c1 | 2.92 | – | IC50 (FFLUC_HILL_SLOPE 1.01, FFLUC_R_SQUARED 0.213, PBLUC_HILL_SLOPE 39.2, PBLUC_R_SQUARED 0.71, read-out: LUCIFERASE INFECTION ASSAY - IC50): 2.76 µM
Cc1ccc(C(=O)Nc2nc3ccccc3[nH]2)cc1F | 4.06 | – | IC50 (FFLUC_HILL_SLOPE 1.36, FFLUC_R_SQUARED 0.795, PBLUC_HILL_SLOPE 11.8, PBLUC_R_SQUARED 0.45, read-out: LUCIFERASE INFECTION ASSAY - IC50): 3.37 µM
C=CCN(c1ccc(Cl)cc1)S(=O)(=O)c1cccc(C(=O)C(C#N)c2nc3ccccc3n2C)c1 (stereo not given) | 3.88 | – | IC50 (HEPG2TOX_HILL_SLOPE 10.3, HEPG2TOX_R_SQUARED 0.536, PBLUC_HILL_SLOPE 9.9, PBLUC_R_SQUARED 0.166, read-out: LUCIFERASE INFECTION ASSAY - IC50): 3.1 µM
COC(=O)c1c(COC(=O)/C=C/c2ccc(OCC#N)c(OC)c2)nc2ccccc2c1-c1ccccc1 | > 10 | > 10 | –
COc1ccc(/C=C2\CCCC3C2=NN(C(=O)CSc2ccccn2)C3c2ccc(OC)cc2)cc1 (stereo not given) | 9.76 | – | IC50 (PBLUC_HILL_SLOPE 1.58, PBLUC_R_SQUARED 0.267, read-out: LUCIFERASE INFECTION ASSAY - IC50): 2.44 µM
